pIC50: −log10 of the molar value.
Legend:
[1] = target: CK1ε (Homo sapiens (Human), UniProt P49674); assay: CK1ε kinase assay (Caliper LABCHIP electrophoretic separation of fluoresceinated peptide substrate and product); format: biochemical; conditions: 200 pM enzyme, 50 μM ATP, 22 hours at room temperature
Description: (§1) CK1ε and CK1δ Kinase Assays
(§2) The kinase assay was performed in V-bottom 384-well plates. […] The reaction was incubated at room temperature for 22 hours and terminated by adding 45 μl of 35 mM EDTA to each sample. The reaction mixture was analyzed on the Caliper LABCHIP®3000 (Caliper, Hopkinton, Mass.) by electrophoretic separation of the unphosphorylated substrate and phosphorylated product. […] Compounds were dissolved at 10 mM in dimethylsulfoxide (DMSO) and evaluated at eleven concentrations. IC50 values were derived by non-linear regression analysis.

[2] = target: CK1δ (Homo sapiens (Human), UniProt P48730); assay: CK1δ kinase assay (Caliper LABCHIP electrophoretic separation of fluoresceinated peptide substrate and product); format: biochemical; conditions: 200 pM enzyme, 50 μM ATP, 22 hours at room temperature
CK1δ, sequence (P48730 whole entry): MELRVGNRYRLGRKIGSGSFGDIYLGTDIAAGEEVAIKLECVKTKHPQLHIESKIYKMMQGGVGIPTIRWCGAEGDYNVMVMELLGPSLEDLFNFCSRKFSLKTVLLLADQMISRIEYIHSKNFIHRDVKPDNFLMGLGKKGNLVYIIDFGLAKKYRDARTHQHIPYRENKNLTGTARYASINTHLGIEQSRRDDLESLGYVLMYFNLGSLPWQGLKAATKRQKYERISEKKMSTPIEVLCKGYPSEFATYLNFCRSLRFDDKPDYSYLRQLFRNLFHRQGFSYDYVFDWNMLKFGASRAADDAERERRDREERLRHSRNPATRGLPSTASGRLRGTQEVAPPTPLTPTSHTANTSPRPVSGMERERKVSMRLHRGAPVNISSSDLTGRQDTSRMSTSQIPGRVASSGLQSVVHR
Description: as §1, §2

CK1ε, sequence (P49674 whole entry): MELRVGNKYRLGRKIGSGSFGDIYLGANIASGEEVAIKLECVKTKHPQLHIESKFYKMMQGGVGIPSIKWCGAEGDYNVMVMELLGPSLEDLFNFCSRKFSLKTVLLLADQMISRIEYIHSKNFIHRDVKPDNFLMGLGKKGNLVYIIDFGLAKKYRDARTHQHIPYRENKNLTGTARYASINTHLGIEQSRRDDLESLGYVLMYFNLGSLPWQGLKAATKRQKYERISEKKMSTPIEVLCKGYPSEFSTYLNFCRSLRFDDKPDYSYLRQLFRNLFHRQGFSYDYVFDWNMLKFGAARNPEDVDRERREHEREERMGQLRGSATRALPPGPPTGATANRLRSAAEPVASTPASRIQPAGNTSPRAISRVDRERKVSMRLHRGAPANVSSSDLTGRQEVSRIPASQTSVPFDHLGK

Row | pIC50 [1] | pIC50 [2] | SMILES
1 | 8.90 | 9.21 | Cc1nc(-c2ccc(F)cc2)c(-c2ccc3nc(NC(=O)c4ccnc(F)c4)cn3n2)n1CC(F)(F)F [Compound 289, 2-fluoro-N-(6-(4-(4-fluorophenyl)-2-methyl-1-(2,2,2-trifluoroethyl)-1H-imidazol-5-yl)imidazo[1,2-b]pyridazin-2-yl)isonicotinamide]
2 | 8.46 | 9.48 | O=C(Nc1cn2nc(-c3c(-c4ccc(F)cc4)ncn3C3CC(F)(F)C3)ccc2n1)c1ccnc(F)c1 [Compound 262, N-(6-(1-(3,3-difluorocyclobutyl)-4-(4-fluorophenyl)-1H-imidazol-5-yl)imidazo[1,2-b]pyridazin-2-yl)-2-fluoroisonicotinamide]
3 | 8.67 | 9.47 | Cc1nc(-c2ccc(F)cc2)c(-c2ccc3nc(NC(=O)c4cccc5ncccc45)cn3n2)n1C [Compound 328, N-(6-(4-(4-fluorophenyl)-1,2-dimethyl-1H-imidazol-5-yl)imidazo[1,2-b]pyridazin-2-yl)-5-quinolinecarboxamide]
4 | 7.60 | 8.76 | Cc1nc(-c2ccc(F)cc2)c(-c2ccc3nc(NC(=O)C4CCC(=O)N4)cn3n2)n1C (stereo not drawn) [Compound 366, N-(6-(4-(4-fluorophenyl)-1,2-dimethyl-1H-imidazol-5-yl)imidazo[1,2-b]pyridazin-2-yl)-5-oxoprolinamide]
5 | 9.53 | 9.89 | O=C(Nc1cn2nc(-c3c(-c4ccc(F)cc4)ncn3C3CCN(C(=O)c4ccncc4)CC3)ccc2n1)c1ccnc(F)c1 [Compound 56, 2-fluoro-N-(6-(4-(4-fluorophenyl)-1-(1 isonicotinoylpiperidin-4-yl)-1H-imidazol-5-yl)imidazo[1,2-b]pyridazin-2-yl)isonicotinamide]
6 | 8.06 | 8.85 | Cc1cc(C(=O)Nc2cn3nc(-c4c(-c5ccc(F)cc5)nc(C)n4C)ccc3n2)nn1C [Compound 369, N-(6-(4-(4-fluorophenyl)-1,2-dimethyl-1H-imidazol-5-yl)imidazo[1,2-b]pyridazin-2-yl)-1,5-dimethyl-1H-pyrazole-3-carboxamide]
7 | 7.88 | 9.12 | CC(C)(C)C(=O)Nc1cn2nc(-c3c(-c4ccc(F)cc4)ncn3CCc3cccnc3)ccc2n1 [Compound 282, N-(6-(4-(4-fluorophenyl)-1-(2-(pyridin-3-yl)ethyl)-1H-imidazol-5-yl)imidazo[1,2-b]pyridazin-2-yl)pivalamide]
8 | 9.89 | 10.04 | Cc1nc(-c2cccnc2)sc1C(=O)Nc1cn2nc(-c3c(-c4ccc(F)cc4)ncn3C3CCN(CC(N)=O)CC3)ccc2n1 [Compound 100, N-(6-(1-(1-(2-amino-2-oxoethyl)piperidin-4-yl)-4-(4-fluorophenyl)-1H-imidazol-5-yl)imidazo[1,2-b]pyridazin-2-yl)-4-methyl-2-(pyridin-3-yl) thiazole-5-carboxamide]
9 | 7.45 | 8.51 | O=C(Nc1cn2nc(-c3c(-c4ccc(F)cc4)ncn3-c3ccc(F)cc3)ccc2n1)c1ccnc(N2CCOCC2)c1 [Compound 419, N-(6-(1,4-bis(4-Fluorophenyl)-1H-imidazol-5-yl)imidazo[1,2-b]pyridazin-2-yl)-2-morpholinoisonicotinamide]
10 | 8.21 | 9.28 | O=C(Nc1cn2nc(-c3c(-c4ccc(F)cc4)nc4ccccn34)ccc2n1)c1cncnc1 [Compound 182, N-(6-(2-(4-fluorophenyl)imidazo[1,2-a]pyridin-3-yl)imidazo[1,2-b]pyridazin-2-yl)-5-pyrimidinecarboxamide]
11 | 8.04 | 8.78 | O=C(Nc1cn2nc(-c3c(-c4ccc(F)cc4)nc(C4CC4)n3C3CCN(C(=O)c4ccon4)CC3)ccc2n1)c1ccnc(F)c1 [Compound 126, N-(6-(2-cyclopropyl-4-(4-fluorophenyl)-1-(1-(isoxazole-3-carbonyl)piperidin-4-yl)-1H-imidazol-5-yl)imidazo[1,2-b]pyridazin-2-yl)-2-fluoroisonicotinamide]
12 | 6.75 | 7.73 | Cc1nc(-c2ccc(F)cc2)c(-c2ccc3nc(NC(=O)c4ncc[nH]4)cn3n2)n1C [Compound 373, N-(6-(4-(4-fluorophenyl)-1,2-dimethyl-1H-imidazol-5-yl)imidazo[1,2-b]pyridazin-2-yl)-1H-imidazole-2-carboxamide]
13 | 8.61 | 8.60 | CN1CCC(n2cnc(-c3ccc(F)cc3)c2-c2ccc3nc(NC(=O)c4ccncc4)cn3n2)CC1 [Compound 2]
14 | 8.49 | 9.19 | CN1CCC(n2cnc(-c3ccc(F)cc3)c2-c2ccc3nc(NC(=O)c4ccnc5ccccc45)cn3n2)CC1 [Compound 110, N-(6-(4-(4-fluorophenyl)-1-(1-methylpiperidin-4-yl)-1H-imidazol-5-yl)imidazo[1,2-b]pyridazin-2-yl)quinoline-4-carboxamide]
15 | 8.19 | 9.15 | O=C(Nc1cn2nc(-c3c(-c4ccc(F)cc4)ncn3C3CC3)ccc2n1)c1ccncc1 [Compound 427, N-(6-(1-Cyclopropyl-4-(4-fluorophenyl)-1H-imidazol-5-yl)imidazo[1,2-b]pyridazin-2-yl)isonicotinamide]
16 | 8.59 | 9.22 | O=C(Nc1cn2nc(-c3c(-c4ccc(F)cc4)nc4n3CCN(C(=O)CC(F)(F)F)C4)ccc2n1)c1ccnc(F)c1 [Compound 461, 2-Fluoro-N-(6-(2-(4-fluorophenyl)-7-(3,3,3-trifluoropropanoyl)-5,6,7,8-tetrahydroimidazo[1,2-a]pyrazin-3-yl)imidazo[1,2-b]pyridazin-2-yl)isonicotinamide]
17 | 7.78 | 8.70 | O=C(Nc1cn2nc(-c3c(-c4ccc(F)cc4)ncn3C3CCN(C(=O)c4cc(C5CC5)on4)CC3)ccc2n1)c1ccnc(F)c1 [Compound 45, N-(6-(1-(1-(5-cyclopropylisoxazole-3-carbonyl)piperidin-4-yl)-4-(4-fluorophenyl)-1H-imidazol-5-yl)imidazo[1,2-b]pyridazin-2-yl)-2-fluoroisonicotinamide]
18 | 8.25 | 9.19 | O=C(Nc1cn2nc(-c3c(-c4ccc(F)cc4)ncn3C3CCN(C[C@@H](O)C(F)(F)F)CC3)ccc2n1)c1cc(F)nc(F)c1 [Compound 90, (R)-2,6-difluoro-N-(6-(4-(4-fluorophenyl)-1-(1-(3,3,3-trifluoro-2-hydroxypropyl)piperidin-4-yl)-1H-imidazol-5-yl)imidazo[1,2-b]pyridazin-2-yl)isonicotinamide]
19 | 8.11 | 8.70 | Cn1ccc(-c2cccc(C(=O)Nc3cn4nc(-c5c(-c6ccc(F)cc6)nc6ccccn56)ccc4n3)c2)n1 [Compound 171, N-(6-(2-(4-fluorophenyl)imidazo[1,2-a]pyridin-3-yl)imidazo[1,2-b]pyridazin-2-yl)-3-(1-methyl-1H-pyrazol-3-yl)benzamide]
20 | 7.71 | 8.79 | Cc1nc(-c2ccc(F)cc2)c(-c2ccc3nc(NC(=O)c4ccnc(F)c4)c(Br)n3n2)n1C [Compound 411, N-(3-Bromo-6-(4-(4-fluorophenyl)-1,2-dimethyl-1H-imidazol-5-yl)imidazo[1,2-b]pyridazin-2-yl)-2-fluoroisonicotinamide]
21 | 8.92 | 9.70 | O=C(Nc1cn2nc(-c3c(-c4ccc(F)cc4)ncn3C3CCOCC3)ccc2n1)c1cc(F)nc(F)c1 [Compound 433, 2,6-Difluoro-N-(6-(4-(4-fluorophenyl)-1-(tetrahydro-2H-pyran-4-yl)-1H-imidazol-5-yl)imidazo[1,2-b]pyridazin-2-yl)isonicotinamide]
22 | 9.53 | 9.51 | O=C(Nc1cn2nc(-c3c(-c4ccc(F)cc4)ncn3C3CCN(Cc4ccon4)CC3)ccc2n1)c1ccncc1 [Compound 3, N-(6-(4-(4-fluorophenyl)-1-(1-(isoxazol-3-ylmethyl)piperidin-4-yl)-1H-imidazol-5-yl)imidazo[1,2-b]pyridazin-2-yl)isonicotinamide]
23 | 8.79 | 9.51 | O=C(Nc1cn2nc(-c3c(-c4ccc(F)cc4)ncn3C3CCN(C(=O)OC4CCOCC4)CC3)ccc2n1)c1ccnc(F)c1 [Compound 81, tetrahydro-2H-pyran-4-yl 4-(5-(2-(2-fluoroisonicotinamido)imidazo[1,2-b]pyridazin-6-yl)-4-(4-fluorophenyl)-1H-imidazol-1-yl)piperidine-1-carboxylate]
24 | 7.87 | 9.00 | O=C(Nc1cn2nc(-c3c(-c4ccc(F)cc4)ncn3-c3cccnc3)ccc2n1)c1ccnc(N2CCOCC2)c1 [Compound 424, N-(6-(4-(4-Fluorophenyl)-1-(pyridin-3-yl)-1H-imidazol-5-yl)imidazo[1,2-b]pyridazin-2-yl)-2-morpholinoisonicotinamide]
25 | 8.17 | 9.14 | CCc1nc(-c2ccc(F)cc2)c(-c2ccc3nc(NC(=O)c4ccnc(F)c4)cn3n2)n1CC(F)F [Compound 286, N-(6-(1-(2,2-difluoroethyl)-2-ethyl-4-(4-fluorophenyl)-1H-imidazol-5-yl)imidazo[1,2-b]pyridazin-2-yl)-2-fluoroisonicotinamide]
26 | 7.43 | 7.90 | O=C(Nc1cn2nc(-c3c(-c4ccc(F)cc4)nc4ccc(NC5CCC5)nn34)ccc2n1)c1ccncc1 [Compound 227]
27 | 7.92 | 8.80 | Cn1nccc1C(=O)Nc1cn2nc(-c3c(-c4ccc(F)cc4)nc4ccccn34)ccc2n1 [Compound 180, N-(6-(2-(4-fluorophenyl)imidazo[1,2-a]pyridin-3-yl)imidazo[1,2-b]pyridazin-2-yl)-1-methyl-1H-pyrazole-5-carboxamide]
